Where “and” joins values, the source holds several entries; their conditions need not be identical. Identical values can stand only once. Inconclusive results and toxic doses are left out. Cut-off read from the data, not from the text of the source: active = T/C of 150% or more; inactive = T/C below 125%.
Tested on: L1210 leukemia ip in BDF1 mice, survival T/C
Assay: NCI In Vivo Anticancer Drug Screen. Data for tumor model L1210 Leukemia (intraperitoneal) in B6D2F1 (BDF1) mice
Conditions: endpoint: mean survival time, higher = longer survival
Outline: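 Read-out is survival time, reported as the treated-group measurement over the vehicle-control measurement.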

[1] = dose: 100.0 mg/kg/injection, schedule: Q01DX001 (ip), vehicle: carboxymethylcellulose (CMC)
[2] = dose: 200.0 mg/kg/injection, schedule: Q01DX001 (ip), vehicle: carboxymethylcellulose (CMC)
[3] = dose: 400.0 mg/kg/injection, schedule: Q01DX001 (ip), vehicle: carboxymethylcellulose (CMC)
[4] = dose: 100.0 mg/kg/injection, schedule: Q04DX002 (ip), vehicle: saline with Tween-80
[5] = dose: 200.0 mg/kg/injection, schedule: Q04DX002 (ip), vehicle: saline with Tween-80
[6] = dose: 400.0 mg/kg/injection, schedule: Q04DX002 (ip), vehicle: saline with Tween-80
[7] = dose: 400.0 mg/kg/injection, schedule: Q04DX003 (ip), vehicle: saline with Tween-80
[8] = dose: 25.0 mg/kg/injection, schedule: Q01DX009 (ip), vehicle: Klucel (hydroxypropylcellulose) (HPC)
[9] = dose: 50.0 mg/kg/injection, schedule: Q01DX009 (ip), vehicle: Klucel (hydroxypropylcellulose) (HPC)
[10] = dose: 100.0 mg/kg/injection, schedule: Q04DX003 (ip), vehicle: Klucel (hydroxypropylcellulose) (HPC)
[11] = dose: 200.0 mg/kg/injection, schedule: Q04DX003 (ip), vehicle: Klucel (hydroxypropylcellulose) (HPC)
[12] = dose: 50.0 mg/kg/injection, schedule: Q01DX009 (ip), vehicle: saline with Tween-80
[13] = dose: 100.0 mg/kg/injection, schedule: Q01DX009 (ip), vehicle: saline with Tween-80
[14] = dose: 200.0 mg/kg/injection, schedule: Q01DX009 (ip), vehicle: saline with Tween-80
[15] = dose: 100.0 mg/kg/injection, schedule: Q04DX003 (ip), vehicle: saline with Tween-80
[16] = dose: 200.0 mg/kg/injection, schedule: Q04DX003 (ip), vehicle: saline with Tween-80

Measured: T/C

O=c1nc(NO)ccn1C1CCCCO1 (stereo unspecified)
inactive: [1] 95 % of control | [2] 95 % of control | [3] 95 % of control

CCN=C(c1ccc(NC(=O)c2ccc(C(=O)Nc3ccc(C(=NCC)N(CC)C(=O)CC(C)C)cc3)cc2)cc1)N(CC)C(=O)CC(C)C
inactive: dose: 3.12 mg/kg/injection, schedule: Q01DX015 (ip), vehicle: methylcellulose (MC) 96 % of control | dose: 6.25 mg/kg/injection, schedule: Q01DX015 (ip), vehicle: methylcellulose (MC) 96 % of control | dose: 12.5 mg/kg/injection, schedule: Q01DX015 (ip), vehicle: methylcellulose (MC) 92 % of control | dose: 25.0 mg/kg/injection, schedule: Q01DX015 (ip), vehicle: methylcellulose (MC) 93 % of control | dose: 50.0 mg/kg/injection, schedule: Q01DX015 (ip), vehicle: methylcellulose (MC) 96 % of control | dose: 100.0 mg/kg/injection, schedule: Q01DX015 (ip), vehicle: methylcellulose (MC) 88 % of control | dose: 200.0 mg/kg/injection, schedule: Q01DX015 (ip), vehicle: methylcellulose (MC) 94 % of control

O=Nc1ccc(C=C2C(=O)C=CC2=O)cc1
inactive: dose: 75.0 mg/kg/injection, schedule: Q01DX001 (ip), vehicle: saline 100 % of control | dose: 150.0 mg/kg/injection, schedule: Q01DX001 (ip), vehicle: saline 94 % of control | dose: 300.0 mg/kg/injection, schedule: Q01DX001 (ip), vehicle: saline 101 % of control

COc1cc(\C=N/N=C/C=C/c2ccccc2)cc(OC)c1OC
inactive: dose: 50.0 mg/kg/injection, schedule: Q04DX003 (ip), vehicle: saline with Tween-80 95 % of control | [4] 87 % of control and 90 % of control | [5] 104 % of control and 113 % of control | [6] 102 % of control and 103 % of control | [7] 93 % of control and 88 % of control

CCOP(=O)(OCC)C1C(C)N1C(=O)Nc1ccccc1 (stereo unspecified)
inactive: [8] 106 % of control | [9] 105 % of control | dose: 100.0 mg/kg/injection, schedule: Q01DX009 (ip), vehicle: Klucel (hydroxypropylcellulose) (HPC) 110 % of control | [10] 101 % of control | [11] 100 % of control | dose: 400.0 mg/kg/injection, schedule: Q04DX003 (ip), vehicle: Klucel (hydroxypropylcellulose) (HPC) 106 % of control

Nc1ccc(CCc2ccccc2)cc1
inactive: [12] 97 % of control

NC(=O)c1c(/N=C/c2cc(Cl)cc(Cl)c2O)sc2c1CCCC2
inactive: [4] 96 % of control | [5] 93 % of control | [6] 96 % of control

C/C=C\c1ccc(OC(=O)NC)c(OC)c1
inactive: [1] 99 % of control | dose: 100.0 mg/kg/injection, schedule: Q01DX009 (ip), vehicle: carboxymethylcellulose (CMC) 97 % of control and 104 % of control | dose: 100.0 mg/kg/injection, schedule: Q04DX002 (ip), vehicle: Klucel (hydroxypropylcellulose) (HPC) 100 % of control | dose: 100.0 mg/kg/injection, schedule: Q04DX002 (ip), vehicle: carboxymethylcellulose (CMC) 98 % of control and 104 % of control | dose: 100.0 mg/kg/injection, schedule: Q04DX003 (ip), vehicle: carboxymethylcellulose (CMC) 96 % of control | [2] 100 % of control | dose: 200.0 mg/kg/injection, schedule: Q01DX009 (ip), vehicle: carboxymethylcellulose (CMC) 103 % of control and 104 % of control | dose: 200.0 mg/kg/injection, schedule: Q04DX002 (ip), vehicle: Klucel (hydroxypropylcellulose) (HPC) 103 % of control | dose: 200.0 mg/kg/injection, schedule: Q04DX002 (ip), vehicle: carboxymethylcellulose (CMC) 98 % of control and 108 % of control | dose: 200.0 mg/kg/injection, schedule: Q04DX003 (ip), vehicle: carboxymethylcellulose (CMC) 93 % of control | [3] 99 % of control | dose: 400.0 mg/kg/injection, schedule: Q01DX009 (ip), vehicle: carboxymethylcellulose (CMC) 100 % of control and 101 % of control | dose: 400.0 mg/kg/injection, schedule: Q04DX002 (ip), vehicle: Klucel (hydroxypropylcellulose) (HPC) 103 % of control | dose: 400.0 mg/kg/injection, schedule: Q04DX002 (ip), vehicle: carboxymethylcellulose (CMC) 93 % of control and 98 % of control | dose: 400.0 mg/kg/injection, schedule: Q04DX003 (ip), vehicle: carboxymethylcellulose (CMC) 93 % of control

CCC(O)CN (stereo unspecified)
inactive: dose: 100.0 mg/kg/injection, schedule: Q04DX003 (ip), vehicle: saline 96 % of control and 107 % of control | dose: 200.0 mg/kg/injection, schedule: Q04DX003 (ip), vehicle: saline 96 % of control | dose: 400.0 mg/kg/injection, schedule: Q04DX003 (ip), vehicle: saline 95 % of control

S=c1[nH]c2ccccc2s1.[Pb]
inactive: dose: 100.0 mg/kg/injection, schedule: Q01DX001 (ip), vehicle: Klucel (hydroxypropylcellulose) (HPC) 94 % of control | dose: 200.0 mg/kg/injection, schedule: Q01DX001 (ip), vehicle: Klucel (hydroxypropylcellulose) (HPC) 100 % of control | dose: 400.0 mg/kg/injection, schedule: Q01DX001 (ip), vehicle: Klucel (hydroxypropylcellulose) (HPC) 100 % of control

CCCCNC(C)(C)C(SS)c1ccco1 (stereo unspecified)
inactive: dose: 12.5 mg/kg/injection, schedule: Q04DX003 (ip), vehicle: alcohol 104 % of control | dose: 25.0 mg/kg/injection, schedule: Q01DX009 (ip), vehicle: saline 97 % of control | dose: 25.0 mg/kg/injection, schedule: Q04DX003 (ip), vehicle: alcohol 101 % of control | dose: 50.0 mg/kg/injection, schedule: Q01DX009 (ip), vehicle: saline 92 % of control | dose: 50.0 mg/kg/injection, schedule: Q04DX003 (ip), vehicle: alcohol 96 % of control | dose: 100.0 mg/kg/injection, schedule: Q01DX009 (ip), vehicle: saline 98 % of control | dose: 100.0 mg/kg/injection, schedule: Q04DX003 (ip), vehicle: alcohol 101 % of control | dose: 150.0 mg/kg/injection, schedule: Q01DX009 (ip), vehicle: saline with Tween-80 92 % of control | dose: 200.0 mg/kg/injection, schedule: Q04DX003 (ip), vehicle: alcohol 104 % of control

CN(C)S(=O)(=O)c1ccc(NC(=O)OC(c2ccccc2)c2ccccc2)cc1
inactive: dose: 100.0 mg/kg/injection, schedule: Q01DX001 (ip), vehicle: saline 91 % of control | dose: 200.0 mg/kg/injection, schedule: Q01DX001 (ip), vehicle: saline 102 % of control | dose: 400.0 mg/kg/injection, schedule: Q01DX001 (ip), vehicle: saline 91 % of control

COC(=O)c1ccc(O)c([N+](=O)[O-])c1
inactive: [12] 103 % of control | [13] 94 % of control | [14] 89 % of control

c1ccc(CCCSc2ccccc2)cc1
inactive: [13] 120 % of control | [15] 108 % of control | [14] 104 % of control | [16] 94 % of control | [7] 100 % of control

O=C(O)c1[nH]c(=O)[nH]c(=O)c1N1CCCCC1
inactive: dose: 12.0 mg/kg/injection, schedule: Q01DX001 (ip), vehicle: saline 106 % of control | dose: 25.0 mg/kg/injection, schedule: Q01DX001 (ip), vehicle: saline 101 % of control | [8] 105 % of control | [9] 92 % of control

C=C(Cl)CN(CC)CCO
inactive: [15] 98 % of control | [16] 102 % of control | [7] 108 % of control

CC(C)(NC(=O)c1ccccc1)C(=O)O
inactive: dose: 50.0 mg/kg/injection, schedule: Q04DX003 (ip), vehicle: Klucel (hydroxypropylcellulose) (HPC) 106 % of control | [10] 96 % of control | [11] 88 % of control

C[n+]1cc2cc(O)c(O)cc2c2ccc3cc(O)c(O)cc3c21
inactive: dose: 40.0 mg/kg/injection, schedule: Q01DX009 (ip), vehicle: saline 102 % of control | dose: 80.0 mg/kg/injection, schedule: Q01DX009 (ip), vehicle: saline 107 % of control | dose: 120.0 mg/kg/injection, schedule: Q01DX009 (ip), vehicle: saline 98 % of control | dose: 240.0 mg/kg/injection, schedule: Q01DX009 (ip), vehicle: saline 98 % of control

COc1cc2ccnc(Cc3ccccc3)c2cc1OC
inactive: [12] 103 % of control | [13] 93 % of control and 94 % of control | [15] 102 % of control | [14] 88 % of control | [16] 100 % of control

CCOC(=O)Nc1cc(Cl)c2n[nH]nc2n1
inactive: dose: 25.0 mg/kg/injection, schedule: Q01DX005 (ip), vehicle: saline 105 % of control | dose: 50.0 mg/kg/injection, schedule: Q01DX005 (ip), vehicle: saline 113 % of control | dose: 100.0 mg/kg/injection, schedule: Q01DX005 (ip), vehicle: saline 110 % of control
